# From ChEMBL document CHEMBL1201862, “PubChem BioAssay data set” (2004)
# Where a name gives a salt, the structure may show the parent alone.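 The compound was tested at five concentrations on cells cultured in 96-well plates, with a 48-hour exposure period. GI50 = concentration required for 50% inhibition of growth.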 The source made the active and inactive calls. Cut-off read from the data, not from the text of the source: active = GI50 up to about 1.1 µM and inactive = higher.
# How the values were obtained:
# Experiment in all cases: NCI-60 cell line screen, 48 h
# SNB-19 = test system: SNB-19
# M14 = test system: M14
# HCT-116 = test system: HCT-116
# K562 = test system: K562
# HOP-62 = test system: HOP-62
# HCC 2998 = test system: HCC 2998
# DMS-114 = test system: DMS-114
# RPMI-8226 = test system: RPMI-8226
# DLD-1 = test system: DLD-1
# A549 = test system: A549
# NCI-H522 = test system: NCI-H522
# LXFL 529 = test system: LXFL 529
# A498 = test system: A498
# OVCAR-4 = test system: OVCAR-4
# UACC-257 = test system: UACC-257
# SR = test system: SR
# SW-620 = test system: SW-620
# OVCAR-8 = test system: OVCAR-8
# SK-OV-3 = test system: SK-OV-3
# 786-0 = test system: 786-0
# SF-268 = test system: SF-268
# EKVX = test system: EKVX
# COLO 205 = test system: COLO 205
# IGROV-1 = test system: IGROV-1
# ACHN = test system: ACHN
# UACC-62 = test system: UACC-62
# NCI-H460 = test system: NCI-H460
# SNB-75 = test system: SNB-75
# DMS-273 = test system: DMS-273
# SF-539 = test system: SF-539
# OVCAR-3 = test system: OVCAR-3
# UO-31 = test system: UO-31
# CAKI-1 = test system: CAKI-1
# CCRF-CEM = test system: CCRF-CEM
# SK-MEL-5 = test system: SK-MEL-5
# Malme-3M = test system: Malme-3M
# MOLT-4 = test system: MOLT-4
# SN12C = test system: SN12C
# HL-60 = test system: HL-60
# LOX IMVI = test system: LOX IMVI
# SF-295 = test system: SF-295
# KM12 = test system: KM12
# HOP-92 = test system: HOP-92
# SK-MEL-28 = test system: SK-MEL-28
# NCI-H226 = test system: NCI-H226
# SK-MEL-2 = test system: SK-MEL-2
# RXF 393 = test system: RXF 393
# OVCAR-5 = test system: OVCAR-5
# NCI-H23 = test system: NCI-H23
# HCT-15 = test system: HCT-15
# HT-29 = test system: HT-29
# U-251 = test system: U-251
# TK-10 = test system: TK-10
# XF498 = test system: XF498
# MCF7 = test system: MCF7
# SNB-78 = test system: SNB-78
# KM-20L2 = test system: KM-20L2
# MDA-MB-435 = test system: MDA-MB-435
# HOP-18 = test system: HOP-18
structure (smiles),measurement,setting,value
O=c1c2ccccc2oc2ccccc12.Oc1cccc2cccnc12,GI50,SNB-19,3.36 µM (inactive)
same,GI50,M14,3.11 µM (inactive)
same,GI50,HCT-116,2.56 µM (inactive)
same,GI50,K562,4.99 µM (inactive)
same,GI50,HOP-62,7.43 µM (inactive)
same,GI50,HCC 2998,1.88 µM (inactive)
same,GI50,DMS-114,1.63 µM (inactive)
same,GI50,RPMI-8226,5.41 µM (inactive)
same,GI50,DLD-1,1.76 µM (inactive)
same,GI50,A549,2.63 µM (inactive)
same,GI50,NCI-H522,12.9 µM (inactive)
same,GI50,LXFL 529,1.56 µM (inactive)
same,GI50,A498,16.8 µM (inactive)
same,GI50,OVCAR-4,5.89 µM (inactive)
same,GI50,UACC-257,2.73 µM (inactive)
same,GI50,SR,2.73 µM (inactive)
same,GI50,SW-620,1.77 µM (inactive)
same,GI50,OVCAR-8,2.36 µM (inactive)
same,GI50,SK-OV-3,< 0.01 µM (active)
same,GI50,786-0,1.66 µM (inactive)
same,GI50,SF-268,2.75 µM (inactive)
same,GI50,EKVX,3.44 µM (inactive)
same,GI50,COLO 205,3.05 µM (inactive)
same,GI50,IGROV-1,3.73 µM (inactive)
same,GI50,ACHN,3.12 µM (inactive)
same,GI50,UACC-62,3.76 µM (inactive)
same,GI50,NCI-H460,0.966 µM (active)
same,GI50,SNB-75,2.29 µM (inactive)
same,GI50,DMS-273,1.94 µM (inactive)
same,GI50,SF-539,2.36 µM (inactive)
same,GI50,OVCAR-3,5.53 µM (inactive)
same,GI50,UO-31,2.31 µM (inactive)
same,GI50,CAKI-1,3.9 µM (inactive)
same,GI50,CCRF-CEM,0.815 µM (active)
same,GI50,SK-MEL-5,1.95 µM (inactive)
same,GI50,Malme-3M,1.75 µM (inactive)
same,GI50,MOLT-4,0.607 µM (active)
same,GI50,SN12C,2.22 µM (inactive)
same,GI50,HL-60,0.67 µM (active)
same,GI50,LOX IMVI,1.49 µM (inactive)
same,GI50,SF-295,2.23 µM (inactive)
same,GI50,KM12,5.3 µM (inactive)
C=CCC1OC(C)(C)Oc2ccc(OCOCCOC)cc21 (stereo not given),GI50,SNB-19,> 100 µM (inactive)
same,GI50,M14,> 100 µM (inactive)
same,GI50,HCT-116,> 100 µM (inactive)
same,GI50,K562,> 100 µM (inactive)
same,GI50,HOP-62,> 100 µM (inactive)
same,GI50,HCC 2998,> 100 µM (inactive)
same,GI50,DMS-114,> 100 µM (inactive)
same,GI50,HOP-92,> 100 µM (inactive)
same,GI50,SK-MEL-28,> 100 µM (inactive)
same,GI50,A549,> 100 µM (inactive)
same,GI50,LXFL 529,> 100 µM (inactive)
same,GI50,A498,> 100 µM (inactive)
same,GI50,OVCAR-4,> 100 µM (inactive)
same,GI50,NCI-H226,> 10 µM (inactive)
same,GI50,SK-MEL-2,> 100 µM (inactive)
same,GI50,UACC-257,> 100 µM (inactive)
same,GI50,SW-620,> 100 µM (inactive)
same,GI50,OVCAR-8,> 100 µM (inactive)
same,GI50,RXF 393,> 100 µM (inactive)
same,GI50,OVCAR-5,> 100 µM (inactive)
same,GI50,SK-OV-3,> 100 µM (inactive)
same,GI50,786-0,> 100 µM (inactive)
same,GI50,SF-268,> 100 µM (inactive)
same,GI50,EKVX,> 100 µM (inactive)
same,GI50,IGROV-1,> 100 µM (inactive)
same,GI50,ACHN,> 100 µM (inactive)
same,GI50,NCI-H23,> 100 µM (inactive)
same,GI50,UACC-62,> 100 µM (inactive)
same,GI50,NCI-H460,> 100 µM (inactive)
same,GI50,HCT-15,> 100 µM
same,GI50,HT-29,> 100 µM (inactive)
same,GI50,U-251,> 100 µM (inactive)
same,GI50,SNB-75,> 100 µM (inactive)
same,GI50,TK-10,> 100 µM (inactive)
same,GI50,SF-539,> 100 µM (inactive)
same,GI50,OVCAR-3,> 100 µM (inactive)
same,GI50,UO-31,> 100 µM (inactive)
same,GI50,CAKI-1,> 100 µM (inactive)
same,GI50,SK-MEL-5,> 100 µM (inactive)
same,GI50,Malme-3M,> 100 µM (inactive)
same,GI50,MOLT-4,> 100 µM (inactive)
same,GI50,SN12C,> 100 µM (inactive)
same,GI50,LOX IMVI,> 100 µM (inactive)
same,GI50,SF-295,> 100 µM (inactive)
same,GI50,KM12,> 100 µM (inactive)
CC1[C@@H]2CC=C3[C@H]4CCC5Cc6nc7c(nc6C[C@@]5(C)C4(O)CC(=O)[C@]32CO[C@]12OC(C)(C)CC2O)CC1CC[C@@H]2C3=C[C@H]4O[C@@]5(O[C@@](C)(CO)C[C@@H]5O)C(C)[C@@]4(O)[C@]3(C)[C@@H](O)CC2[C@]1(C)C7 (stereo not given in full),GI50,XF498,< 0.0001 µM (active)
same,GI50,HCC 2998,0.0748 µM (active)
same,GI50,DMS-114,0.00011 µM (active)
same,GI50,RPMI-8226,< 0.0001 µM (active)
same,GI50,A498,0.000342 µM (active)
same,GI50,RXF 393,< 0.0001 µM (active)
same,GI50,MCF7,0.00194 µM (active)
same,GI50,SNB-75,< 0.0001 µM (active)
same,GI50,DMS-273,< 0.0001 µM (active)
same,GI50,TK-10,0.0204 µM (active)
same,GI50,SF-539,< 0.0001 µM (active)
same,GI50,HL-60,< 0.0001 µM (active)
same,GI50,SF-295,< 0.0001 µM (active)
O=C1c2c(O)ccc(O)c2C(=O)c2c(NCCNCCO)ccc(NCCNCCO)c21 [MITOXANTRONE HYDROCHLORIDE],GI50,HCT-116,0.0553 µM (active)
same,GI50,XF498,0.0136 µM (active)
same,GI50,K562,0.118 µM (active)
same,GI50,HOP-92,0.0177 µM (active)
same,GI50,DLD-1,0.491 µM (active)
same,GI50,A498,0.0619 µM (active)
same,GI50,NCI-H226,0.0153 µM (active)
same,GI50,UACC-257,1.89 µM (inactive)
same,GI50,SR,0.00764 µM (active)
same,GI50,SNB-78,0.204 µM (active)
same,GI50,ACHN,0.0115 µM (active)
same,GI50,U-251,0.0091 µM (active)
same,GI50,DMS-273,0.0119 µM (active)
same,GI50,TK-10,0.423 µM (active)
same,GI50,KM-20L2,0.384 µM (active)
same,GI50,MDA-MB-435,0.471 µM (active)
same,GI50,CAKI-1,0.00899 µM (active)
same,GI50,CCRF-CEM,0.00598 µM (active)
same,GI50,HL-60,0.0103 µM (active)
same,GI50,HOP-18,0.126 µM (active)
